We go through four compounds from patent publication US20230414629A1, “MATERIALS AND METHODS OF TREATING CANCER” (MONOPTEROS THERAPEUTICS, INC., priority 2020, published 2023).

Molecules are shown by their SMILES. Entries after “also recorded” stand apart in the source; their conditions may differ. Where only a bound is given, the exact number is not on record here.

Data set [1] deals with D4M.3A tumor. The experiment in a line: Tumor growth in D4M.3A tumor-bearing C57/BL6 mice, oral dosing. It counts as in vivo. As to conditions: 64 mg/kg orally once per day for 20 days. The source says:
A high volume of distribution (Vss 22.6 l/kg) was observed. […] MPT-0118 is quickly distributed from the plasma to the tissue compartment, which reduces the risk for depletion of circulating Tregs. The high volume of distribution and accumulation of MPT-0118 in tumor tissue broadens the therapeutic window for cancer therapy.

A further data set is described as follows: pKa. It counts as physicochemical.
The subject of data set [2] is patient-derived tumor spheroids. Briefly: Anti-tumor effect in patient-derived tumor spheroids. It counts as cell-based.
A short description of data set [3]: Tumor pharmacokinetics in D4M.3A tumor-bearing C57/BL6 mice. As to conditions: 64 mg/kg PO once per day, after 20 days of dosing, for a 24-hour period. In kind it is in vivo. As for the experimental part: (§1) A high volume of distribution (Vss 22.6 l/kg) was observed. […] The tumor concentrations in this experiment were above 3 μM for a 24-hour period, which is a required dose for an anti-tumor effect in patient-derived tumor spheroids as shown in FIG. 9. […] MPT-0118 is quickly distributed from the plasma to the tissue compartment, which reduces the risk for depletion of circulating Tregs. The high volume of distribution and accumulation of MPT-0118 in tumor tissue broadens the therapeutic window for cancer therapy.

Data set [4] relates to circulating regulatory T cells (Tregs). Briefly: Circulating Tregs in rats under continuous oral dosing (flow cytometry). It counts as in vivo. As to conditions: 15 and 30 mg/kg oral, days 0 through 14. The source says: Animals: Harlan Sprague Dawley rats (Hsd:SD) rats were procured through Envigo (Indianapolis, IN). Rats were individually housed in an Optirat carousel with a filtered air supply (Animal Care Systems, Inc. [Centennial, CO]). Rats were fed Teklad rodent diet (Cat. #2020X) and bedded with Teklad ⅛th inch corncob bedding.
Blood sampling: After a 72-hour acclimation period, Rats were randomized into (3) groups of 5 rats each (Day −1). Blood samples were taken on days: −1, 3, 5, 7, 10, and 14. Blood sampling was conducted by inserting a 22 g PinPort injector (Cat. #PNP3M) on the pinport and drawing 200 μL of catheter Loc solution using a 1 mL syringe. The syringe was discarded and a new 1 mL syringe was used to draw approximately 300 μL of whole blood. Whole blood was expelled into 1.7 mL K2EDTA coated tubes and inverted 3× and put at 4 C until processing for flow cytometry. A syringe with Catheter Loc solution (Heparin/Glycerol Loc solution, Cat. #HGS-5 [Braintree Scientific]) was placed on a new PinPort injector and 200 μL of catheter loc solution was added. […]
Flow cytometry: Following red blood cell lysis (BD Pharm Lyse, Cat. #555899, Lot #9311388), rat blood samples were stained with near-IR fixable viability dye (1:3000 dilution, Invitrogen, Cat. #L34960 H, Lot #2159963) for 30 minutes at room temperature. […] Data was analyzed with FlowJo (BD, v10.6.2).
For orientation: In flow cytometry, cells or beads pass a laser one at a time.

A short description of data set [5]: Plasma pharmacokinetics in C57/BL6 mice. In kind it is in vivo. As for the experimental part: as §1
Data set [6] in a line: Serum IgE and IgG in dogs dosed daily for 28 days. In kind it is in vivo. As to conditions: 10-30 mg/kg daily for 28 days. As to the method: Whole venous blood samples of approximately 1 mL were collected from a peripheral vein of all animals on day 0 and on day 28 of the treatment period for determination of IgG and IgE concentrations. Test samples were diluted and incubated in the microtiter wells for 45 minutes alongside dog IgG or IgE standards. The microtiter wells were subsequently washed and HRP conjugate is added and incubated for 45 minutes. IgG or IgE molecules are thus sandwiched between the immobilization and detection antibodies. The wells were then washed to remove unbound HRP-labeled antibodies and TMB reagent was added and incubated for 20 minutes at room temperature. […] Color development is stopped by the addition of Stop Solution, changing the color to yellow, and optical density is measured spectrophotometrically at 450 nm. The concentration of IgG or IgE is proportional to the optical density of the test sample and is derived from a standard curve.

Data set [7] has as its system D4M.3A tumor. The experiment in a line: D4M.3A syngeneic tumors in C57BL/6J mice, I.P. monotherapy and combination with anti-PD-1. It counts as in vivo. As for the experimental part:
One million cells of D4M.3A tumor were injected subcutaneously into the right hind flank of C57BL/6J mice.
Anti-PD-1 Antibody dosing was 10 μL/g animal weight for 3 doses on first, third and fifth treatment day.
Measurement of tumor volume (L×W2)/2 was done by caliper. Longest tumor diameter becomes length. Width is perpendicular to length. Volume=(width2×length)/2.

For data set [8] the following is noted: in vivo; cited from earlier work.

One may read the pKa as the negative logarithm of the acid dissociation constant. A low value points to a stronger acid or weaker base. By bioavailability is commonly meant the share of a dose that reaches the circulation, judged against a reference dose that is usually intravenous. High values mean much systemic uptake, low ones little systemic uptake. As to `CN1CCC[C@H](CN2c3ccccc3Sc3ccccc32)C1` [(S)-mepazine], the tumor growth inhibition result in the data set on D4M.3A tumor [1] is recorded as “significant tumor growth inhibition”. Further, in “pKa”, the pKa worked out at 9.2. For the same compound, the “required dose for an anti-tumor effect in patient-derived tumor spheroids” value in [2] stood at 3 µM. The tumor concentrations result in data set [3] is given as “above 3 μM”. For the same compound, in [4], the “average percent of circulating regulatory T cells (Tregs)” value is recorded as “no effect; also recorded: did not deplete”. In data set [5] (C57/BL6, mouse, single dose 16 mg/kg IV, plasma over 8 hours, read-out: volume of distribution (Vss)), the Vd was 22.6 L/kg. In data set [5] (mouse, in vivo, po), this compound yielded a bioavailability of 25 to 35%. Further, in data set [6], the “serum levels of IgE” value is listed as “not negatively impact; also recorded: did not increase; also recorded: did not decrease” and the “serum levels of IgG” value is on record as “not negatively impact; also recorded: did not increase; also recorded: did not decrease”. Moreover, the tumor volume entry in the data set with D4M.3A tumor [7] (combination therapy: 32 mg/kg I.P. once per day with anti-PD-1 antibody) was “significant reduction in tumor volume; also recorded: reduced tumor volume”. Moreover, in the data set on D4M.3A tumor [7] (monotherapy, 32 mg/kg I.P. once per day, from day 9), the tumor volume result was “reduced tumor volume”.

Regarding `CO[C@@H](C)c1c(NC(=O)Nc2cnc(-n3nccn3)c(Cl)c2)cnc2cc(Cl)nn12` [Example-10], the pKa in “pKa” was < 5.

`CO[C@@H](C)c1c(NC(=O)Nc2ccnc(C(F)(F)F)c2)cnc2cc(Cl)nn12` [MLT-943]: the “serum IgE” value in data set [8] is given as “increased”.

Regarding `CO[C@@H](C)c1c(NC(=O)Nc2cnc(-n3nccn3)c(C(F)(F)F)c2)cnc(N)c1Br` [Compound-139], the pKa in “pKa” was found to be 6.5.
